Several values for one entry are separate records, joined by “and”; a condition that tells them apart may be missing. Identical values can stand only once.
Legend:
Experiment in all cases: radiometric filter-binding kinase assay, Kinase HotSpot
Details in all cases: compound 0.5 µM; ATP 10 µM
LYN (human) = LYN (human) (UniProt P07948)
EPHA6 (human) = EPHA6 (human) (UniProt Q9UF33)
PDGFRB (human) = PDGFRB (human) (UniProt P09619)
MYLK (human) = MYLK (human) (UniProt Q15746)
TBK1 (human) = TBK1 (human) (UniProt Q9UHD2)
EPHB3 (human) = EPHB3 (human) (UniProt P54753)
STK4 (human) = STK4 (human) (UniProt Q13043)
CAMK1G (human) = CAMK1G (human) (UniProt Q96NX5)
RPS6KB2 (human) = RPS6KB2 (human) (UniProt Q9UBS0)
CSNK1D (human) = CSNK1D (human) (UniProt P48730)
CDC42BPB (human) = CDC42BPB (human) (UniProt Q9Y5S2)
EPHA5 (human) = EPHA5 (human) (UniProt P54756)
IGF1R (human) = IGF1R (human) (UniProt P08069)
NTRK1 (human) = NTRK1 (human) (UniProt P04629)
STK24 (human) = STK24 (human) (UniProt Q9Y6E0)
CSNK1G1 (human) = CSNK1G1 (human) (UniProt Q9HCP0)
MAPK12 (human) = MAPK12 (human) (UniProt P53778)
Sequence of MAPK12 (human) (P53778 whole entry, looked up): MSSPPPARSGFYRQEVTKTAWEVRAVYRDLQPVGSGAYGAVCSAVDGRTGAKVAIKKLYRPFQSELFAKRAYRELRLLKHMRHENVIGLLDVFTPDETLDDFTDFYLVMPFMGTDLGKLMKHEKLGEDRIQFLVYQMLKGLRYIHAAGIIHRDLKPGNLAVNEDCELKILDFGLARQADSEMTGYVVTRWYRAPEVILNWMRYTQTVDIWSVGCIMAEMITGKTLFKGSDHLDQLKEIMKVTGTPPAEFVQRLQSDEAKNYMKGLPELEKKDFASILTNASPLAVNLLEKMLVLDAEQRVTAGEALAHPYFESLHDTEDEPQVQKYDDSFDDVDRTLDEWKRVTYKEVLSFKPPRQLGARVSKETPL

FER (human) = FER (human) (UniProt P16591)
CAMK1D (human) = CAMK1D (human) (UniProt Q8IU85)
MAPKAPK5 (human) = MAPKAPK5 (human) (UniProt Q8IW41)
FES (human) = FES (human) (UniProt P07332)
FYN (human) = FYN (human) (UniProt P06241)
EPHA8 (human) = EPHA8 (human) (UniProt P29322)
TSSK1B (human) = TSSK1B (human) (UniProt Q9BXA7)
MAP3K3 (human) = MAP3K3 (human) (UniProt Q99759)
Sequence of MAP3K3 (human) (Q99759 whole entry, looked up): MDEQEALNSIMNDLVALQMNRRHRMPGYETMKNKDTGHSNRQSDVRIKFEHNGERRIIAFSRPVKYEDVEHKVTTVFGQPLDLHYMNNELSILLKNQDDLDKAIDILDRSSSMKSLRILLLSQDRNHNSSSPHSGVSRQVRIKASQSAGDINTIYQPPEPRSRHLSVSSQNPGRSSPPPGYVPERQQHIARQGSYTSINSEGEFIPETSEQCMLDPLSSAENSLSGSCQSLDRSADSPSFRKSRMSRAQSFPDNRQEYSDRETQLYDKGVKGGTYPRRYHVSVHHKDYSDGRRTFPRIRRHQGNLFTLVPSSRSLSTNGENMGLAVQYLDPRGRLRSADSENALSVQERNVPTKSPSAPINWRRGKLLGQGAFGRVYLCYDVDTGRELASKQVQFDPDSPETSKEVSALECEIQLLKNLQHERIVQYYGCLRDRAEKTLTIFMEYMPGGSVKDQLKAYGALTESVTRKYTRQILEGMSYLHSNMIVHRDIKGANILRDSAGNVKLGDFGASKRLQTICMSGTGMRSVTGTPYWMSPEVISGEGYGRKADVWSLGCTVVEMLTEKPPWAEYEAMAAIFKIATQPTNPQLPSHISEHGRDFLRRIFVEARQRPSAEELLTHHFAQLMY

CDK2 CCNA2 (human) = CDK2 CCNA2 (human) (UniProt P24941+P20248)
CDK2 CCNE1 (human) = CDK2 CCNE1 (human) (UniProt P24941+P24864)
IKBKB (human) = IKBKB (human) (UniProt O14920)
ZAP70 (human) = ZAP70 (human) (UniProt P43403)
WEE1 (human) = WEE1 (human) (UniProt P30291)
Sequence of WEE1 (human) (P30291 whole entry, looked up): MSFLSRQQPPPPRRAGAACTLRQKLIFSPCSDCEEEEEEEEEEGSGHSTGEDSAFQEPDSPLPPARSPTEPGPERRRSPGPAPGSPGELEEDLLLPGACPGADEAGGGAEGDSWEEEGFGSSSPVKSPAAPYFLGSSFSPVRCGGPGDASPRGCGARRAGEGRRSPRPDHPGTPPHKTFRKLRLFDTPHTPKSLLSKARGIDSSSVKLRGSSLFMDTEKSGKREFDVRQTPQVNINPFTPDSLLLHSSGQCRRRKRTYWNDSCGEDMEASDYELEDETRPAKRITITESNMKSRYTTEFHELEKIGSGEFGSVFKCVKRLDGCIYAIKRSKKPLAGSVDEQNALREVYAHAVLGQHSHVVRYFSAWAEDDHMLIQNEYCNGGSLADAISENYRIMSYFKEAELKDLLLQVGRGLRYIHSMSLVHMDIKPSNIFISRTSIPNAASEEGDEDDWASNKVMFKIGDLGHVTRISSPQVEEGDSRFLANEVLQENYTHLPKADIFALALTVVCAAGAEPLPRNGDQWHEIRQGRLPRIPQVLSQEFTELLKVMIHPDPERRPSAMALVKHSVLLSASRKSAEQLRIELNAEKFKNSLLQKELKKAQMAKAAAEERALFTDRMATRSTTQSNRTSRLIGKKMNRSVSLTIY

TTK (human) = TTK (human) (UniProt P33981)
MAPK14 (human) = MAPK14 (human) (UniProt Q16539)
Sequence of MAPK14 (human) (Q16539 whole entry, looked up): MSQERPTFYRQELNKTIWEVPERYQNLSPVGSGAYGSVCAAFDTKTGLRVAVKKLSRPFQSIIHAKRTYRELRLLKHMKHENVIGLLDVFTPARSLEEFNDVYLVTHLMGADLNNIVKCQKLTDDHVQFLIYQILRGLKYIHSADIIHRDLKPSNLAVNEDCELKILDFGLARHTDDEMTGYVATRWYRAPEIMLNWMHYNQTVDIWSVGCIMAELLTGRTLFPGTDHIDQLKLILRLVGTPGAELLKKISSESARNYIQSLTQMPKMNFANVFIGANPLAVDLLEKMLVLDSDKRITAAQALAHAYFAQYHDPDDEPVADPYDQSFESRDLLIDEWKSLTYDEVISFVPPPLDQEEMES

FGFR3 (human) = FGFR3 (human) (UniProt P22607)
CSNK1G3 (human) = CSNK1G3 (human) (UniProt Q9Y6M4)
Sequence of CSNK1G3 (human) (Q9Y6M4 whole entry, looked up): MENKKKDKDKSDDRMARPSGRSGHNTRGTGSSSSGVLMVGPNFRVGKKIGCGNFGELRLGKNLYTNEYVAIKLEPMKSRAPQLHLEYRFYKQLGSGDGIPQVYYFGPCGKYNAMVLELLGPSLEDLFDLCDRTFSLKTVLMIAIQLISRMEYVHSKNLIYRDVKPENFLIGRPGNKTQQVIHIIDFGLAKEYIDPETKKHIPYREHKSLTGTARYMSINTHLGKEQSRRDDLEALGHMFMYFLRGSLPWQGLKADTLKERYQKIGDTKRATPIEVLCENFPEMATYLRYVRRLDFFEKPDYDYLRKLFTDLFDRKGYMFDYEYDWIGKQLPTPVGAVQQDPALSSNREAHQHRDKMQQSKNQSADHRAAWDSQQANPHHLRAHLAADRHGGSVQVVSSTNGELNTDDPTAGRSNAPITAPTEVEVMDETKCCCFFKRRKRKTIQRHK

CAMK2D (human) = CAMK2D (human) (UniProt Q13557)
SGK3 (human) = SGK3 (human) (UniProt Q96BR1)
STK16 (human) = STK16 (human) (UniProt O75716)
Sequence of STK16 (human) (O75716 whole entry, looked up): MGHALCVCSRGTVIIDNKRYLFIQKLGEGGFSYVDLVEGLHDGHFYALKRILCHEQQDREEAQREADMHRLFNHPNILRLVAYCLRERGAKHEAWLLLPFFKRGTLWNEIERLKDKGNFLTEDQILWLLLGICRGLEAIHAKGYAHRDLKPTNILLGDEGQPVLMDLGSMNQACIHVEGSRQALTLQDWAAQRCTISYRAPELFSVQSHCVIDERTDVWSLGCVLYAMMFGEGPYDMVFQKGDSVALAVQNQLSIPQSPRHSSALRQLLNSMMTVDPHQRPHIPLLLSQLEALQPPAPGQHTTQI

CAMK2B (human) = CAMK2B (human) (UniProt Q13554)
Sequence of CAMK2B (human) (Q13554 whole entry, looked up): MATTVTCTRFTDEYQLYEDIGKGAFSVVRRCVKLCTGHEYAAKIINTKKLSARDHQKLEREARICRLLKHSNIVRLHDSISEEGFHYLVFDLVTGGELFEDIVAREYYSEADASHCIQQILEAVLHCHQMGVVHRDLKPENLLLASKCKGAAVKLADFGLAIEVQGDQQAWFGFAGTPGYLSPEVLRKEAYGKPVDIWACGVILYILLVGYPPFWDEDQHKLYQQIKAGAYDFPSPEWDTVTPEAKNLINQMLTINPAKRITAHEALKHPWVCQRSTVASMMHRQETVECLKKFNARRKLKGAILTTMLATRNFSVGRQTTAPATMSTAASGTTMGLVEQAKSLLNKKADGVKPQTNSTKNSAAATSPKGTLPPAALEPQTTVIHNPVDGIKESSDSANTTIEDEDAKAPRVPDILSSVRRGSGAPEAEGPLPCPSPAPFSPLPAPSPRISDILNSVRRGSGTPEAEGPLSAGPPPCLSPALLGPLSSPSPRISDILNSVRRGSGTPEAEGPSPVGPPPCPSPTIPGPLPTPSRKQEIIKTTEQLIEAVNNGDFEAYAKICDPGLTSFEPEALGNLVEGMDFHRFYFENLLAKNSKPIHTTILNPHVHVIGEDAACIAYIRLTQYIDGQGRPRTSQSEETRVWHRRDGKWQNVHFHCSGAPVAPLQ

PLK3 (human) = PLK3 (human) (UniProt Q9H4B4)
MAP4K4 (human) = MAP4K4 (human) (UniProt O95819)
RAF1 (human) = RAF1 (human) (UniProt P04049)

Sequence of LYN (human) (P07948 whole entry, looked up): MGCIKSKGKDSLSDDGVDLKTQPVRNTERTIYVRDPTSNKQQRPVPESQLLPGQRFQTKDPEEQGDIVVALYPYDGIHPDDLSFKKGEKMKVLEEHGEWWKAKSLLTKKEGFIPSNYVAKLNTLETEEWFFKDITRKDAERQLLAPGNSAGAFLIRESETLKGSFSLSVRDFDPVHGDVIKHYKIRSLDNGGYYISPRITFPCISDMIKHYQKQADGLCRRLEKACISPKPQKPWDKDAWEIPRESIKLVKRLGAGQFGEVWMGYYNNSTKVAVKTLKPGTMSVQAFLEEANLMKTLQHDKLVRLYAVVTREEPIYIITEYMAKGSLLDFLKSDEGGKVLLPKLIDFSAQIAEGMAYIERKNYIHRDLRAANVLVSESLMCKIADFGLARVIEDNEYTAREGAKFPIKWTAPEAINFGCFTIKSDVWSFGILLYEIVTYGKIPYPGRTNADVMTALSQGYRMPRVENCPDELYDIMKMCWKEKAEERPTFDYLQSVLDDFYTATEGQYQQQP
Sequence of EPHA6 (human) (Q9UF33 whole entry, looked up): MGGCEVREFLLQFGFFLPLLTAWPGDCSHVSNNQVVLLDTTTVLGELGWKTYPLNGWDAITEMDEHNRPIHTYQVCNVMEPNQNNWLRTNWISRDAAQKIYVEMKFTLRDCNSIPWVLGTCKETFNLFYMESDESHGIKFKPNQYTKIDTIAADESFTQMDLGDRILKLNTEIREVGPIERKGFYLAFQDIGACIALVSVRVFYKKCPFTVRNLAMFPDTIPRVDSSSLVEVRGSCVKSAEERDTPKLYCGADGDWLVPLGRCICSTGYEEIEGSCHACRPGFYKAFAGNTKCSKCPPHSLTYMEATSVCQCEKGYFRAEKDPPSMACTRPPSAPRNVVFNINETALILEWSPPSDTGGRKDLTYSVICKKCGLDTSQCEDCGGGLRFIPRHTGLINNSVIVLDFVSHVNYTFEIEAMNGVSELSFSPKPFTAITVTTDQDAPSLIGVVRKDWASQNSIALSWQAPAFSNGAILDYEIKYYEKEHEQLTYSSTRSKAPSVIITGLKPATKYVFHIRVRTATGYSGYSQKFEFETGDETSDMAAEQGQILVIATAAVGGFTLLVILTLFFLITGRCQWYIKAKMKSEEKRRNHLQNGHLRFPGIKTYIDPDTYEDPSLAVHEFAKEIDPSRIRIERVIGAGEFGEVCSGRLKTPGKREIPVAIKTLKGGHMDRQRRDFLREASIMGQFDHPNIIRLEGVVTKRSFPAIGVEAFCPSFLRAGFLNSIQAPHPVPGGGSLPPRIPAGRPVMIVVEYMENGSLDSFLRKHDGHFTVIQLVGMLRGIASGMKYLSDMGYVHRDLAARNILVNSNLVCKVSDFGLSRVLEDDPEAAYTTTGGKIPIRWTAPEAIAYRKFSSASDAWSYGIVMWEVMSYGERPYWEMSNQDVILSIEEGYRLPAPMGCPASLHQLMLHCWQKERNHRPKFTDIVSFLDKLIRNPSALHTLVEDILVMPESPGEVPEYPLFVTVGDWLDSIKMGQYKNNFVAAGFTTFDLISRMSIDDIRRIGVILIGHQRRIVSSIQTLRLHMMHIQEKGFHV

In the case of `CNC(=O)c1cc(Oc2ccc(NC(=O)Nc3ccc(Cl)c(C(F)(F)F)c3)cc2)ccn1`, the residual activity (LYN (human)) is reported as 88.1% and 98.8%, the residual activity (EPHA6 (human)) is reported as 42% and the residual activity (PDGFRB (human)) is reported as 12%. It also gave a residual activity (MYLK (human)) of 93.7%, a residual activity (TBK1 (human)) of 98.6% and a residual activity (EPHB3 (human)) of 95.5%. The residual activity (STK4 (human)) was 101%, the residual activity (CAMK1G (human)) was 107% and the residual activity (RPS6KB2 (human)) was 103%. It also gave a residual activity (CSNK1D (human)) of 103%, a residual activity (CDC42BPB (human)) of 102% and a residual activity (EPHA5 (human)) of 99.4%. For the same molecule, the residual activity (IGF1R (human)) was 94.3%, the residual activity (NTRK1 (human)) was 76.1% and the residual activity (STK24 (human)) was 110%. It also gave a residual activity (CSNK1G1 (human)) of 102%, a residual activity (MAPK12 (human)) of 94.2% and a residual activity (FER (human)) of 101%. It also gave a residual activity (CAMK1D (human)) of 103%, a residual activity (MAPKAPK5 (human)) of 95.8% and a residual activity (FES (human)) of 104%. The residual activity (FYN (human)) was 91.6%, the residual activity (EPHA8 (human)) was 94.5% and the residual activity (TSSK1B (human)) was 98.7%. For the same molecule, the residual activity (MAP3K3 (human)) was 107%, the residual activity (CDK2 CCNA2 (human)) was 99.7% and the residual activity (CDK2 CCNE1 (human)) was 98.2%. The residual activity (IKBKB (human)) was 88.3%, the residual activity (ZAP70 (human)) was 97.8% and the residual activity (WEE1 (human)) was 103%. It also gave a residual activity (TTK (human)) of 104%, a residual activity (MAPK14 (human)) of 40.2% and a residual activity (FGFR3 (human)) of 89.5%. For the same molecule, the residual activity (CSNK1G3 (human)) was 99.8%, the residual activity (CAMK2D (human)) was 102% and the residual activity (SGK3 (human)) was 101%. The residual activity (STK16 (human)) was 105%, the residual activity (CAMK2B (human)) was 96.7% and the residual activity (PLK3 (human)) was 99.3%. For the same molecule, the residual activity (MAP4K4 (human)) was 96.1%.

In the case of `CCOC(=O)c1c(C)[nH]c(/C=C2\C(=O)Nc3ccccc32)c1C`, the residual activity (LYN (human)) is reported as 84.1% and 98.4%, the residual activity (EPHA6 (human)) is reported as 80% and the residual activity (PDGFRB (human)) is reported as 69.1%. The residual activity (MYLK (human)) was 94.8%, the residual activity (TBK1 (human)) was 70.5% and the residual activity (EPHB3 (human)) was 94.4%. The residual activity (STK4 (human)) was 83.4%, the residual activity (CAMK1G (human)) was 98.2% and the residual activity (RPS6KB2 (human)) was 103%. The residual activity (CSNK1D (human)) was 96.4%, the residual activity (CDC42BPB (human)) was 110% and the residual activity (EPHA5 (human)) was 91.9%. The residual activity (IGF1R (human)) was 79.5%, the residual activity (NTRK1 (human)) was 69.9% and the residual activity (STK24 (human)) was 82.5%. The residual activity (CSNK1G1 (human)) was 103%, the residual activity (MAPK12 (human)) was 101% and the residual activity (FER (human)) was 72.5%. For the same molecule, the residual activity (CAMK1D (human)) was 93.1%, the residual activity (MAPKAPK5 (human)) was 93.9% and the residual activity (FES (human)) was 99.3%. It also gave a residual activity (FYN (human)) of 97.3%, a residual activity (EPHA8 (human)) of 88.7% and a residual activity (TSSK1B (human)) of 91.2%. It also gave a residual activity (MAP3K3 (human)) of 92.8%, a residual activity (CDK2 CCNA2 (human)) of 94.5% and a residual activity (CDK2 CCNE1 (human)) of 95.6%. For the same molecule, the residual activity (IKBKB (human)) was 101%, the residual activity (ZAP70 (human)) was 98.8% and the residual activity (WEE1 (human)) was 91.2%. The residual activity (TTK (human)) was 96.6%, the residual activity (MAPK14 (human)) was 134% and the residual activity (FGFR3 (human)) was 80.4%. For the same molecule, the residual activity (CSNK1G3 (human)) was 97.9%, the residual activity (CAMK2D (human)) was 93.9% and the residual activity (SGK3 (human)) was 88.1%. The residual activity (STK16 (human)) was 88.3%, the residual activity (CAMK2B (human)) was 96% and the residual activity (PLK3 (human)) was 97.5%. For the same molecule, the residual activity (MAP4K4 (human)) was 64.5% and the residual activity (RAF1 (human)) was 89.6%.

Reference: the kinase profiling compilation of Christmann-Franck et al. (2016)
